The values below come from patent US11234437B2 (priority 2017, dated 2022).

SMILES strings stand for the structures.

The test system of data set [1] is Fusarium culmorum. Description: whole plant or invertebrate. The class given is in vivo. As to conditions: in Triticum aestivum, read-out: control of Fusarium culmorum.
Data set [2] relates to Gibberella zeae (Fusarium graminearum). Kind of data set: whole plant or invertebrate. The class given is in vivo. The following applies: in Triticum aestivum, read-out: control of Gibberella zeae.
Data set [3] deals with Magnaporthe grisea (Pyricularia oryzae). Kind of data set: microbe, parasite or virus in culture. As to conditions: read-out: control of Magnaporthe grisea. In kind it is cell-based.
Data set [4] concerns Monographella nivalis (Microdochium nivale). Kind of data set: Monographella nivalis (Microdochium nivale) / liquid culture (foot rot cereals). The class given is cell-based. The following applies: compared to untreated control. The protocol: Monographella nivalis (Microdochium nivale)/Liquid Culture (Foot Rot Cereals)
Conidia of the fungus from cryogenic storage are directly mixed into nutrient broth (PDB potato dextrose broth). After placing a (DMSO) solution of test compound into a microtiter plate (96-well format), the nutrient broth containing the fungal spores is added. The test plates are incubated at 24° C. and the inhibition of growth is determined photometrically 4-5 days after application.

The next data set relates to Sclerotinia sclerotiorum. Kind of data set: Sclerotinia sclerotiorum / liquid culture (cottony rot). The class given is cell-based. The following applies: compared to untreated control. The method, then:
Sclerotinia sclerotiorum/Liquid Culture (Cottony Rot)
Mycelia fragments of a newly grown liquid culture of the fungus are directly mixed into nutrient broth (Vogels broth). After placing a (DMSO) solution of test compound into a microtiter plate (96-well format) the nutrient broth containing the fungal material is added. The test plates are incubated at 24° C. and the inhibition of growth is determined photometrically 3-4 days after application.

The test system of data set [5] is Botryotinia fuckeliana (Botrytis cinerea). Description: Botryotinia fuckeliana (Botrytis cinerea) / liquid culture (gray mould). The class given is cell-based. The following applies: compared to untreated control. The protocol: Botryotinia fuckeliana (Botrytis cinerea)/Liquid Culture (Gray Mould)
Conidia of the fungus from cryogenic storage are directly mixed into nutrient broth (Vogels broth). After placing a (DMSO) solution of test compound into a microtiter plate (96-well format), the nutrient broth containing the fungal spores is added. The test plates are incubated at 24° C. and the inhibition of growth is determined photometrically 3-4 days after application.

Data set [6] relates to Glomerella lagenarium (Colletotrichum lagenarium). Description: Glomerella lagenarium (Colletotrichum lagenarium) / liquid culture (anthracnose). The class given is cell-based. As to conditions: Colletotrichum orbiculare, compared to untreated control. The protocol:
Conidia of the fungus from cryogenic storage are directly mixed into nutrient broth (PDB potato dextrose broth). After placing a (DMSO) solution of test compound into a microtiter plate (96-well format), the nutrient broth containing the fungal spores is added. The test plates are incubated at 24° C. and the inhibition of growth is measured photometrically 3-4 days after application.

Data set [7] concerns Fusarium culmorum. Description: microbe, parasite or virus in culture. As to conditions: read-out: control of Fusarium culmorum. The class given is cell-based.
Another data set concerns Gaeumannomyces graminis. Kind of data set: Gaeumannomyces graminis / liquid culture (take-all of cereals). The class given is cell-based. The following applies: compared to untreated control. The protocol:
Mycelial fragments of the fungus from cryogenic storage were directly mixed into nutrient broth (PDB potato dextrose broth). After placing a (DMSO) solution of test compound into a microtiter plate (96-well format), the nutrient broth containing the fungal spores is added. The test plates are incubated at 24° C. and the inhibition of growth is determined photometrically 4-5 days after application.

Broadly, the melting point is the temperature, or range, at which the solid turns liquid.

`CC(C)C[C@@](C)(Cc1ccccc1)NC(=O)c1cnc2c(F)c(F)ccc2c1` [Compound F-13, N-[(1S)-1-benzyl-1,3-dimethyl-butyl]-7,8-difluoro-quinoline-3-carboxamide]: the pest or weed control at 200 ppm (with Fusarium culmorum [1]; in [2]) was no less than 80% throughout. For the same compound, in data set [3], the inhibition of growth at 20 ppm is no less than 80%.
Take `Cc1cccc2cc(C(=O)N[C@@](C)(Cc3ccccc3)CC(F)(F)F)cnc12` [Compound F-17, N-[(1S)-1-benzyl-3,3,3-trifluoro-1-methyl-propyl]-8-methyl-quinoline-3-carboxamide]: the inhibition of growth at 20 ppm (in data set [4]; in [3]; in the data set with Sclerotinia sclerotiorum) was no less than 80% each time.
With `C[C@](Cc1ccccc1)(CC(F)(F)F)NC(=O)c1cnc2c(Cl)cccc2c1` [Compound F-19, N-[(1S)-1-benzyl-3,3,3-trifluoro-1-methyl-propyl]-8-chloro-quinoline-3-carboxamide], the pest or weed control at 200 ppm in data set [2] is no less than 80%. Also, the inhibition of growth at 20 ppm (in data set [3]; in the data set on Sclerotinia sclerotiorum) was no less than 80% each time.
As to `C[C@](Cc1ccccc1)(CC(F)(F)F)NC(=O)c1cnc2c(F)c(F)ccc2c1` [Compound F-21, N-[(1S)-1-benzyl-3,3,3-trifluoro-1-methyl-propyl]-7,8-difluoro-quinoline-3-carboxamide], the inhibition of growth at 20 ppm (in data set [3]; in the data set with Sclerotinia sclerotiorum) was no less than 80% each time.
For the compound `C[C@@](Cc1ccccc1)(CC1(F)CC1)NC(=O)c1cnc2c(F)cccc2c1` [Compound F-23, N-[(1R)-1-benzyl-2-(1-fluorocyclopropyl)-1-methyl-ethyl]-8-fluoro-quinoline-3-carboxamide], the inhibition of growth at 200 ppm (in data set [5]; in data set [6]; with Fusarium culmorum [7]) was no less than 80% in each case. Further, the pest or weed control at 200 ppm in the data set on Fusarium culmorum [1] is no less than 80%. Besides, the inhibition of growth at 20 ppm in data set [4] and in [3] was no less than 80% throughout.
Take `CC1(C[C@@](C)(Cc2ccccc2)NC(=O)c2cnc3c(F)cccc3c2)CC1` [Compound F-26, N-[(1S)-1-benzyl-1-methyl-2-(1-methylcyclopropyl)ethyl]-8-fluoro-quinoline-3-carboxamide]: the inhibition of growth at 200 ppm (in data set [5]; in data set [6]; with Fusarium culmorum [7]) was no less than 80% throughout. In addition, the inhibition of growth at 20 ppm in data set [4] and in data set [3] was no less than 80% each time.
With `CC(C)C[C@@](C)(Cc1cccc(F)c1)NC(=O)c1cnc2c(F)cccc2c1` [Compound F-30, 8-fluoro-N-[(1S)-1-[(3-fluorophenyl)methyl]-1,3-dimethyl-butyl]quinoline-3-carboxamide], the inhibition of growth at 200 ppm (in data set [5]; in data set [6]; with Fusarium culmorum [7]) was no less than 80% throughout. The pest or weed control at 200 ppm in the data set with Fusarium culmorum [1] was no less than 80%. The inhibition of growth at 20 ppm in [4] and in data set [3] was no less than 80% in each case.
Consider `CC(F)(F)C[C@](C)(Cc1ccccc1)NC(=O)c1cnc2c(F)cccc2c1` [Compound F-32, N-[(1S)-1-benzyl-3,3-difluoro-1-methyl-butyl]-8-fluoro-quinoline-3-carboxamide], for which the pest or weed control at 200 ppm in data set [2] was no less than 80%. In addition, the inhibition of growth at 20 ppm (in data set [3]; in the data set on Sclerotinia sclerotiorum) was no less than 80% each time.
For `C[C@@](Cc1ccccc1)(CC(F)(F)F)NC(=O)c1cnc2ccccc2c1` [Compound F-33, N-[(1R)-1-benzyl-3,3,3-trifluoro-1-methyl-propyl]quinoline-3-carboxamide], the inhibition of growth at 200 ppm (in [5]; in [6]; in the data set with Fusarium culmorum [7]) was no less than 80% throughout. For the same compound, the pest or weed control at 200 ppm with Fusarium culmorum [1] was no less than 80%.
Take `C=C(Cl)C[C@@](C)(Cc1ccccc1)NC(=O)c1cnc2c(F)cccc2c1` [Compound F-36]: the inhibition of growth at 200 ppm (in [5]; in data set [6]; with Fusarium culmorum [7]) was no less than 80% in each case.
The compound `CC(C)CC(C)(Cc1ccccc1)NC(=O)c1cnc2c(F)cccc2c1` (centres unmarked) [X.002, N-(1-benzyl-1,3-dimethyl-butyl)-8-fluoro-quinoline-3-carboxamide] came in with a melting point of 110 to 112 °C. The compound also gave an inhibition of growth at 20 ppm with Gaeumannomyces graminis of no less than 80%. Besides, the inhibition of growth at 20 ppm in [4] is no less than 80%. The inhibition of growth at 20 ppm in data set [3] was no less than 80%.
Regarding `CC(Cc1ccccc1)(CC(F)(F)F)NC(=O)c1cnc2c(F)cccc2c1` (centres unmarked) [X.006, N-(1-benzyl-3,3,3-trifluoro-1-methyl-propyl)-8-fluoro-quinoline-3-carboxamide], the melting point lay within 158 to 160 °C. In the data set on Gaeumannomyces graminis, this compound gave an inhibition of growth at 20 ppm of no less than 80%. The pest or weed control at 200 ppm in data set [2] was no less than 80%. Further, the inhibition of growth at 20 ppm in data set [3] was no less than 80%.
Consider `CC(Cc1ccccc1)(CC(F)(F)F)NC(=O)c1cnc2c(F)c(F)ccc2c1` (centres unmarked) [X.007, N-(1-benzyl-3,3,3-trifluoro-1-methyl-propyl)-7,8-difluoro-quinoline-3-carboxamide], for which the pest or weed control at 200 ppm in [2] was no less than 80%. Further, the inhibition of growth at 20 ppm (in [3]; in the data set with Sclerotinia sclerotiorum) was no less than 80% each time.
Consider `CC(C)CC(C)(Cc1ccccc1)NC(=O)c1cnc2c(F)c(F)ccc2c1` (centres unmarked) [X.008, N-(1-benzyl-1,3-dimethyl-butyl)-7,8-difluoro-quinoline-3-carboxamide], for which the melting point lay within 114 to 116 °C. The compound further came in with an inhibition of growth at 20 ppm in the data set on Gaeumannomyces graminis of no less than 80%. Besides, in data set [2], the pest or weed control at 200 ppm is no less than 80%. Moreover, the inhibition of growth at 20 ppm in [4] is no less than 80%. In [3], the inhibition of growth at 20 ppm was no less than 80%.
In turn, `CC(C)CC(C)(Cc1cccc(F)c1)NC(=O)c1cnc2c(F)cccc2c1` (centres unmarked) [X.011, 8-fluoro-N-[1-[(3-fluorophenyl)methyl]-1,3-dimethyl-butyl]quinoline-3-carboxamide] showed a melting point of 45 to 47 °C. Also, the inhibition of growth at 20 ppm in the data set on Gaeumannomyces graminis is no less than 80%. Further, in data set [4], the inhibition of growth at 20 ppm is no less than 80%. In addition, the inhibition of growth at 20 ppm in data set [3] was no less than 80%.
Regarding `CC(Cc1cccc(F)c1)(CC(F)(F)F)NC(=O)c1cnc2c(F)cccc2c1` (centres unmarked) [X.012, 8-fluoro-N-[3,3,3-trifluoro-1-[(3-fluorophenyl)methyl]-1-methyl-propyl]quinoline-3-carboxamide], the melting point fell in the range of 149 to 151 °C. In data set [2], the pest or weed control at 200 ppm is no less than 80%. This compound also registered an inhibition of growth at 20 ppm in data set [4] of no less than 80%. Moreover, in data set [3], the inhibition of growth at 20 ppm was no less than 80%. The inhibition of growth at 20 ppm in the data set on Sclerotinia sclerotiorum is no less than 80%.
In turn, `CC(Cc1ccccc1)(CC1(F)CC1)NC(=O)c1cnc2c(F)cccc2c1` (centres unmarked) [X.013, N-[1-benzyl-2-(1-fluorocyclopropyl)-1-methyl-ethyl]-8-fluoro-quinoline-3-carboxamide] gave a melting point of 119 to 121 °C. In [5], this compound displayed an inhibition of growth at 200 ppm of no less than 80%. Besides, the inhibition of growth at 200 ppm in data set [6] is no less than 80%. The inhibition of growth at 200 ppm with Fusarium culmorum [7] is no less than 80%. The same compound had an inhibition of growth at 20 ppm in data set [4] of no less than 80%. Also, the inhibition of growth at 20 ppm in data set [3] is no less than 80%. For the same compound, the inhibition of growth at 20 ppm in the data set with Sclerotinia sclerotiorum was no less than 80%.
In the case of `Cc1cccc2cc(C(=O)NC(C)(Cc3ccccc3)CC(C)C)cnc12` (centres unmarked) [X.017, N-(1-benzyl-1,3-dimethyl-butyl)-8-methyl-quinoline-3-carboxamide], the melting point is 132 to 133 °C. The inhibition of growth at 20 ppm in the data set on Gaeumannomyces graminis is no less than 80%. In addition, in data set [2], the pest or weed control at 200 ppm is no less than 80%. In data set [4], the inhibition of growth at 20 ppm is no less than 80%. The inhibition of growth at 20 ppm in data set [3] was no less than 80%.
As for `CC(C)CC(C)(Cc1ccccc1)NC(=O)c1cnc2c(Cl)cccc2c1` (centres unmarked) [X.018, N-(1-benzyl-1,3-dimethyl-butyl)-8-chloro-quinoline-3-carboxamide], the melting point was 147 to 148 °C. The same compound registered an inhibition of growth at 20 ppm in the data set with Gaeumannomyces graminis of no less than 80%. The same compound gave an inhibition of growth at 20 ppm in [4] of no less than 80%. In addition, in data set [3], the inhibition of growth at 20 ppm is no less than 80%.
Turning to `CC(C)CC(C)(Cc1ccccc1)NC(=O)c1cnc2ccccc2c1` (centres unmarked) [X.019, N-(1-benzyl-1,3-dimethyl-butyl)quinoline-3-carboxamide], the melting point lay in the range of 121 to 123 °C. Besides, the inhibition of growth at 20 ppm with Gaeumannomyces graminis is no less than 80%. Besides, the pest or weed control at 200 ppm in [2] was no less than 80%. The compound further gave an inhibition of growth at 20 ppm in data set [4] of no less than 80%.
